Values quoted from earlier work as cited in patent publication US20140227392A1, “BEER AND RELEVANT PRODUCTION METHOD” (FARCHIONI OLII - S.P.A., priority 2011, published 2014).

Conditions: compared with its precursor daidzein

For `Oc1ccc([C@H]2COc3cc(O)ccc3C2)cc1` [S-(−) equol], the antioxidant activity is given as “significantly greater in antioxidant activity than its precursor”.
